# Reference: the supplement of paper PMC10307832
# Legend:
# Assay in all cases: relative viability (nuclei count vs DMSO), 5 days (fraction); higher = more cells survive
# Kobe2602 + Olaparib = compound: C1=CC(=CC=C1NC(=S)NNC2=C(C=C(C=C2[N+](=O)[O-])C(F)(F)F)[N+](=O)[O-])F [Kobe2602] + O=C(c1cc(Cc2n[nH]c(=O)c3ccccc23)ccc1F)N1CCN(C(=O)C2CC2)CC1 [Olaparib] (partner 8 µM)
# In short: (§1)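 Each reported value is a median over duplicate plates. It expresses relative viability: treated-well nuclei count divided by vehicle-well nuclei count. Lung cancer cell lines in 1536-well plates were dosed by pin tool a day after seeding, alone with one drug or with a fixed anchor-drug dose plus five library-drug doses (not always all listed) in √10 steps, and nuclei were counted after 5 days.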
# [1] = compound: COc1cc2nccc(Oc3ccc(NC(=O)C4(C(=O)Nc5ccc(F)cc5)CC4)cc3)c2cc1OC [Cabozantinib] + CS(=O)(=O)N1CCN(Cc2cc3nc(-c4cccc5[nH]ncc45)nc(N4CCOCC4)c3s2)CC1 [Pictilisib] (partner 1 µM)
# In short: as §1
# Cabozantinib + Dasatinib = compound: COc1cc2nccc(Oc3ccc(NC(=O)C4(C(=O)Nc5ccc(F)cc5)CC4)cc3)c2cc1OC [Cabozantinib] + Cc1nc(Nc2ncc(C(=O)Nc3c(C)cccc3Cl)s2)cc(N2CCN(CCO)CC2)n1 [Dasatinib] (partner 0.075 µM)
# In short: as §1
# Cabozantinib + AZD7762 = compound: COc1cc2nccc(Oc3ccc(NC(=O)C4(C(=O)Nc5ccc(F)cc5)CC4)cc3)c2cc1OC [Cabozantinib] + NC(=O)Nc1cc(-c2cccc(F)c2)sc1C(=O)N[C@H]1CCCNC1 [AZD7762] (partner 0.2 µM)
# In short: as §1
Cell Line,relative viability (Kobe2602 + Olaparib; first compound 0.2 µM),relative viability (Kobe2602 + Olaparib; first compound 0.6325 µM),relative viability (Kobe2602 + Olaparib; first compound 2 µM),relative viability (Kobe2602 + Olaparib; first compound 6.325 µM),relative viability (Kobe2602 + Olaparib; first compound 20 µM),relative viability ([1]; first compound 0.02 µM),relative viability ([1]; first compound 0.06325 µM),relative viability ([1]; first compound 0.2 µM),relative viability ([1]; first compound 0.6325 µM),relative viability ([1]; first compound 2 µM),relative viability (Cabozantinib + Dasatinib; first compound 0.02 µM),relative viability (Cabozantinib + Dasatinib; first compound 0.06325 µM),relative viability (Cabozantinib + Dasatinib; first compound 0.2 µM),relative viability (Cabozantinib + Dasatinib; first compound 0.6325 µM),relative viability (Cabozantinib + Dasatinib; first compound 2 µM),relative viability (Cabozantinib + AZD7762; first compound 0.02 µM),relative viability (Cabozantinib + AZD7762; first compound 0.06325 µM),relative viability (Cabozantinib + AZD7762; first compound 0.6325 µM),relative viability (Cabozantinib + AZD7762; first compound 2 µM),relative viability (Cabozantinib + AZD7762; first compound 0.2 µM)
NCI-H1793,0.91,0.852,0.744,0.883,0.977,0.416,0.325,0.296,0.27,0.293,0.436,0.519,0.343,0.336,0.378,0.413,0.625,0.579,0.17,
NCI-H1915,0.275,0.251,0.246,0.269,0.307,0.929,1.04,0.903,0.949,0.908,0.32,0.316,0.294,0.352,0.322,0.769,0.721,0.804,0.678,0.725
NCI-H1944,0.475,0.385,0.403,0.432,0.403,,0.367,0.369,0.34,0.342,0.183,0.233,0.206,0.221,0.216,0.492,0.552,0.55,0.69,0.598
NCI-H1975,0.763,0.78,0.766,0.722,0.755,0.28,0.322,0.297,0.303,0.337,0.285,0.365,0.344,0.36,0.326,0.673,0.828,0.678,0.682,0.683
NCI-H1993,0.853,1.07,0.922,0.918,1.26,0.842,0.804,0.987,0.811,0.878,0.513,0.488,0.49,0.498,0.523,0.589,0.556,0.461,0.56,0.513
NCI-H2085,0.768,0.835,0.848,0.809,0.799,0.468,0.456,0.443,0.465,0.344,0.285,0.268,0.244,0.218,0.216,1.08,1.06,0.768,0.727,0.766
NCI-H2087,0.564,0.696,0.705,0.639,0.637,1.01,0.976,0.906,1.01,0.854,0.694,0.957,0.823,0.78,0.557,1.19,1.44,1.35,1.35,1.18
NCI-H2126,0.868,0.892,0.905,0.929,0.926,0.442,0.52,0.465,0.544,0.547,0.497,0.625,0.624,0.634,0.573,0.901,1.03,0.988,1.07,0.941
